Data: US20070117743A1, “New antitumoral compounds” (priority 2003, published 2007)
Where two headings read alike, the source gives them in different places. Where a SMILES comes first, the peptide text is derived from it. Bridges are numbered along the chain shown (N, C = ends). [ ]: non-standard residue; d: D form. The star is where a group is joined. Hexanoyl(4S-Me) = CC[C@H](C)CCC(=O)*; d(aIle) = CC[C@H](C)[C@@H](N)C(=O)O; d(aThr) = C[C@@H](O)[C@@H](N)C(=O)O; 2Thi = N[C@@H](Cc1cccs1)C(=O)O; Orn = NCCC[C@H](N)C(=O)O; Dhb = C/C=C(\N)C(=O)O

Experiments:
Format in all cases: cell-based, human
A-549 = assay: SRB colorimetric assay of cell growth and viability, A-549; conditions: 48 hours exposure; for GI50: read-out: GI50 A-549; for CC50: read-out: LC50 A-549
SK-MEL-28 = assay: SRB colorimetric assay of cell growth and viability, SK-MEL-28; conditions: 48 hours exposure; for CC50: read-out: LC50 MEL-28
HT-29 = assay: SRB colorimetric assay of cell growth and viability, HT-29; conditions: 48 hours exposure; for GI50: read-out: GI50 HT-29; for CC50: read-out: LC50 HT-29
LoVo = assay: SRB colorimetric assay of cell growth and viability, LoVo; conditions: 48 hours exposure; for CC50: read-out: LC50 LOVO
LoVo-Dox = assay: SRB colorimetric assay of cell growth and viability, LoVo-Dox; conditions: 48 hours exposure; for CC50: read-out: LC50 LOVO-DOX
In short: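 After 48 hours continuous exposure to samples spanning 10 to 10^−8 μg/mL, biomass was quantified by sulforhodamine B staining of TCA-fixed cells (OD 490 nm). Cells, 5×10^3 per well in RPMI 1640 10% FBS, had attached 18 hours first; GI, TGI and LC derived from triplicate wells.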

DU-145 = assay: SRB colorimetric assay of cell growth and viability, DU-145; conditions: 48 hours exposure
SK-BR-3 = assay: SRB colorimetric assay of cell growth and viability, SK-BR-3; conditions: 48 hours exposure
Text: The finality of this assay is to interrupt the growth of a “in vitro” tumor cell culture by means a continued exhibition of the cells to the sample to be testing.
This form of the assay employs 96 well cell culture microplates of 9 mm diameter (Faircloth, 1988; Mosmann, 1983). Most of the cell lines are obtained from American Type Culture Collection (ATCC) derived from different human cancer types.
Cells are maintained in RPMI 1640 10% FBS, supplemented with 0.1 g/l penicillin and 0.1 g/l streptomycin sulfate and then incubated at 37° C., 5% CO2 and 98% humidity. For the experiments, cells were harvested from subconfluent cultures using trypsin and resuspended in fresh medium before plating.
Cells are seeded in 96 well microtiter plates, at 5×10^3 cells per well in aliquots of 195 μL medium, and they are allowed to attach to the plate surface by growing in drug free medium for 18 hours. Afterward, samples are added in aliquots of 5 μL in a ranging from 10 to 10^−8 μg/mL, dissolved in DMSO:EtOH:PBS (0.5:0.5:99). After 48 hours exposure, the antitumor effect are measured by the SRB methodology: cells are fixed by adding 50 μL of cold 50% (wt/vol) trichloroacetic acid (TCA) and incubating for 60 minutes at 4° C. Plates are washed with deionized water and dried. One hundred μL of SRB solution (0.4% wt/vol in 1% acetic acid) is added to each microtiter well and incubated for 10 minutes at room temperature. Unbound SRB is removed by washing with 1% acetic acid. Plates are air dried and bound stain is solubilized with Tris buffer. Optical densities are read on a automated spectrophotometric plate reader at a single wavelength of 490 nm.
The values for mean+/− SD of data from triplicate wells are calculated. Some parameters for cellular responses can be calculated: GI=growth inhibition, TGI=total growth inhibition (cytostatic effect) and LC=cell killing (cytotoxic effect).

IGROV-1 = assay: SRB colorimetric assay of cell growth and viability, IGROV-1; conditions: 48 hours exposure
IGROV-ET = assay: SRB colorimetric assay of cell growth and viability, IGROV-ET; conditions: 48 hours exposure; for CC50: read-out: LC50 IGROV-ET
HeLa = assay: SRB colorimetric assay of cell growth and viability, HeLa; conditions: 48 hours exposure; for CC50: read-out: LC50 HELA
HeLa-APL = assay: SRB colorimetric assay of cell growth and viability, HeLa-APL; conditions: 48 hours exposure, SRB; for CC50: read-out: LC50 HELA-APL
K-562 = assay: SRB colorimetric assay of cell growth and viability, K-562; conditions: 48 hours exposure; for CC50: read-out: LC50 K-562
PANC-1 = assay: SRB colorimetric assay of cell growth and viability, PANC-1; conditions: 48 hours exposure; for CC50: read-out: LC50 PANC-1

C/C=C1\NC(=O)[C@H](Cc2ccc(OC)cc2)NC(=O)[C@@H](C(C)C)NC(=O)[C@@H]([C@@H](C)CC)NC(=O)[C@H](NC(=O)[C@H](NC(=O)[C@H](CCCN)NC(=O)[C@H]2CCCN2C(=O)[C@H](NC(=O)[C@@H](NC(=O)[C@@H](NC(=O)[C@H](NC(=O)CC[C@@H](C)CC)C(C)C)[C@@H](C)O)C(C)C)C(C)C)[C@@H](C)CC)[C@@H](C)OC(=O)[C@H](C(C)C)NC1=O [Compound 75, [Tyr(Me)^3, (4S)-MeHex^14]-KF] ({Hexanoyl(4S-Me)}-[dV]TV[dV][dP][Orn][d(aIle)][d(aThr)][d(aIle)][dV]Y(Me)[Dhb]V; ester 8-C)
TGI A-549 (A-549; SRB): 1.91E−06 Molar | GI50 (A-549; SRB): 1.03 µM | CC50 (A-549; SRB): 3.55 µM | GI50 (SK-MEL-28; SRB): 0.975 µM | TGI MEL-28 (SK-MEL-28; SRB): 1.82E−06 Molar | CC50 (SK-MEL-28; SRB): 3.4 µM | TGI HT-29 (HT-29; SRB): 2.80E−07 Molar | GI50 (HT-29; SRB): 0.158 µM | CC50 (HT-29; SRB): 0.495 µM | GI50 (LoVo; SRB): 0.126 µM | TGI LOVO (LoVo; SRB): 2.22E−07 Molar | CC50 (LoVo; SRB): 0.391 µM | GI50 (LoVo-Dox; SRB): 0.137 µM | TGI LOVO-DOX (LoVo-Dox; SRB): 2.27E−07 Molar | CC50 (LoVo-Dox; SRB): 0.379 µM | GI50 (DU-145; SRB): 0.749 µM | LC50 (concentration causing 50% net cell kill) (DU-145; SRB): 3.16 µM | TGI DU-145 (DU-145; SRB): 1.54E−06 Molar | GI50 (SK-BR-3; SRB): 0.251 µM | LC50 (SK-BR-3; SRB): 2.38 µM | TGI SK-BR-3 (SK-BR-3; SRB): 6.03E−07 Molar | GI50 (IGROV-1; SRB): 0.35 µM | LC50 (concentration causing 50% net cell killing) (IGROV-1; SRB): 2.36 µM | TGI IGROV (IGROV-1; SRB): 8.36E−07 Molar | GI50 (IGROV-ET; SRB): 0.38 µM | TGI IGROV-ET (IGROV-ET; SRB): 9.09E−07 Molar | CC50 (IGROV-ET; SRB): 2.41 µM | GI50 (HeLa; SRB): 0.509 µM | TGI HELA (HeLa; SRB): 1.18E−06 Molar | CC50 (HeLa; SRB): 2.5 µM | GI50 (HeLa-APL): 0.942 µM | TGI HELA-APL (HeLa-APL): 1.78E−06 Molar | CC50 (HeLa-APL): 3.38 µM | GI50 (K-562; SRB): 0.533 µM | TGI K-562 (K-562; SRB): 2.15E−06 Molar | CC50 (K-562; SRB): 6.63 µM | GI50 (PANC-1; SRB): 1.7 µM | TGI PANC-1 (PANC-1; SRB): 3.08E−06 Molar | CC50 (PANC-1; SRB): 5.59 µM

C/C=C1\NC(=O)[C@H](Cc2cccs2)NC(=O)[C@@H](C(C)C)NC(=O)[C@@H]([C@@H](C)CC)NC(=O)[C@H](NC(=O)[C@H](NC(=O)[C@H](CCCN)NC(=O)[C@H]2CCCN2C(=O)[C@H](NC(=O)[C@@H](NC(=O)[C@@H](NC(=O)[C@H](NC(=O)CC[C@@H](C)CC)C(C)C)[C@@H](C)O)C(C)C)C(C)C)[C@@H](C)CC)[C@@H](C)OC(=O)[C@H](C(C)C)NC1=O [Compound 76, [Thi^3, (4S)-MeHex^14]-KF] ({Hexanoyl(4S-Me)}-[dV]TV[dV][dP][Orn][d(aIle)][d(aThr)][d(aIle)][dV][2Thi][Dhb]V; ester 8-C)
TGI A-549 (A-549; SRB): 2.60E−06 Molar | GI50 (A-549; SRB): 1.53 µM | CC50 (A-549; SRB): 4.43 µM | GI50 (SK-MEL-28; SRB): 1.54 µM | TGI MEL-28 (SK-MEL-28; SRB): 2.52E−06 Molar | CC50 (SK-MEL-28; SRB): 4.14 µM | TGI HT-29 (HT-29; SRB): 1.74E−06 Molar | GI50 (HT-29; SRB): 0.842 µM | CC50 (HT-29; SRB): 3.59 µM | GI50 (LoVo; SRB): 0.243 µM | TGI LOVO (LoVo; SRB): 7.21E−07 Molar | CC50 (LoVo; SRB): 2.16 µM | GI50 (LoVo-Dox; SRB): 0.147 µM | TGI LOVO-DOX (LoVo-Dox; SRB): 2.61E−07 Molar | CC50 (LoVo-Dox; SRB): 0.463 µM | GI50 (DU-145; SRB): 1.2 µM | LC50 (concentration causing 50% net cell kill) (DU-145; SRB): 3.75 µM | TGI DU-145 (DU-145; SRB): 2.12E−06 Molar | GI50 (SK-BR-3; SRB): 0.313 µM | LC50 (SK-BR-3; SRB): 2.04 µM | TGI SK-BR-3 (SK-BR-3; SRB): 6.26E−07 Molar | GI50 (IGROV-1; SRB): 1.18 µM | LC50 (concentration causing 50% net cell killing) (IGROV-1; SRB): 3.87 µM | TGI IGROV (IGROV-1; SRB): 2.14E−06 Molar | GI50 (IGROV-ET; SRB): 1 µM | TGI IGROV-ET (IGROV-ET; SRB): 1.85E−06 Molar | CC50 (IGROV-ET; SRB): 3.41 µM | GI50 (HeLa; SRB): 1.18 µM | TGI HELA (HeLa; SRB): 2.01E−06 Molar | CC50 (HeLa; SRB): 3.45 µM | GI50 (HeLa-APL): 1.35 µM | TGI HELA-APL (HeLa-APL): 2.28E−06 Molar | CC50 (HeLa-APL): 3.86 µM | GI50 (K-562; SRB): 1.71 µM | TGI K-562 (K-562; SRB): 4.01E−06 Molar | CC50 (K-562; SRB): 6.74 µM | GI50 (PANC-1; SRB): 5.93 µM | TGI PANC-1 (PANC-1; SRB): 6.74E−06 Molar | CC50 (PANC-1; SRB): 6.74 µM

[2H]C([2H])([2H])C([2H])(C([2H])([2H])[2H])[C@]([2H])(NC(=O)[C@@H](NC(=O)[C@H](NC(=O)CCCC(C)C)C(C)C)[C@@H](C)O)C(=O)N[C@@H](C(=O)N1CCC[C@@H]1C(=O)N[C@@H](CCCN)C(=O)N[C@@H](C(=O)N[C@H]1C(=O)N[C@H]([C@@H](C)CC)C(=O)N[C@H](C(C)C)C(=O)N[C@@H](Cc2ccccc2)C(=O)N/C(=C\C)C(=O)N[C@@H](C(C)C)C(=O)O[C@@H]1C)[C@@H](C)CC)C(C)C [Compound 100, [L-Val-d8^11]-KF]
TGI A-549 (A-549; A-549): 1.88E−06 Molar | GI50 (A-549; A-549): 1.88 µM | CC50 (A-549; A-549): 1.88 µM | GI50 (SK-MEL-28; SRB): 0.963 µM | TGI MEL-28 (SK-MEL-28; SRB): 1.46E−06 Molar | CC50 (SK-MEL-28; MEL-28): 1.88 µM | TGI HT-29 (HT-29; HT-29): 6.50E−07 Molar | GI50 (HT-29; HT-29): 0.318 µM | CC50 (HT-29; HT-29): 1.18 µM | GI50 (LoVo; LOVO): 0.181 µM | TGI LOVO (LoVo; LOVO): 6.38E−07 Molar | CC50 (LoVo; LOVO): 1.26 µM | GI50 (LoVo-Dox; LOVO-DOX): 0.123 µM | TGI LOVO-DOX (LoVo-Dox; LOVO-DOX): 6.88E−07 Molar | CC50 (LoVo-Dox; LOVO-DOX): 1.38 µM | GI50 (DU-145; SRB): 0.544 µM | TGI DU-145 (DU-145; SRB): 9.69E−07 Molar | LC50 (concentration causing 50% net cell kill) (DU-145; DU-145): 1.59 µM | GI50 (SK-BR-3; SRB): 0.348 µM | TGI SK-BR-3 (SK-BR-3; SRB): 8.19E−07 Molar | LC50 (SK-BR-3; SK-BR-3): 1.45 µM | GI50 (IGROV-1; SRB): 0.781 µM | TGI IGROV (IGROV-1; SRB): 1.16E−06 Molar | LC50 (concentration causing 50% net cell killing) (IGROV-1; IGROV): 1.73 µM | GI50 (IGROV-ET; SRB): 0.399 µM | TGI IGROV-ET (IGROV-ET; SRB): 7.63E−07 Molar | CC50 (IGROV-ET; IGROV-ET): 1.75 µM | GI50 (HeLa; HELA): 0.681 µM | TGI HELA (HeLa; HELA): 1.15E−06 Molar | CC50 (HeLa; HELA): 1.88 µM | GI50 (K-562; K-562): 1.88 µM | TGI K-562 (K-562; K-562): 1.88E−06 Molar | CC50 (K-562; K-562): 1.88 µM | GI50 (PANC-1; PANC-1): 1.88 µM | TGI PANC-1 (PANC-1; PANC-1): 1.88E−06 Molar | CC50 (PANC-1; PANC-1): 1.88 µM
